Reference: PubChem BioAssay (NCI)
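GI50 = concentration required for 50% inhibition of growth. TGI is the concentration that stops growth completely.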

Columns and labels:
Test in all cases: DTP human tumour cell line panel, 384-well format
[1] = system: 786-0 renal
[2] = system: A498 renal
[3] = system: A549 NSCLC
[4] = system: ACHN renal
[5] = system: BT-549 breast
[6] = system: CAKI-1 renal
[7] = system: CCRF-CEM leukemia
[8] = system: COLO 205 colon
[9] = system: DU-145 prostate
[10] = system: EKVX NSCLC
[11] = system: HCC-2998 colon
[12] = system: HCT-116 colon
[13] = system: HCT-15 colon
[14] = system: HL-60(TB) leukemia
[15] = system: HOP-62 NSCLC
[16] = system: HOP-92 NSCLC
[17] = system: HS 578T breast
[18] = system: HT29 colon
[19] = system: IGROV1 ovarian
[20] = system: K-562 leukemia
[21] = system: KM12 colon
[22] = system: LOX IMVI melanoma
[23] = system: M14 melanoma
[24] = system: MALME-3M melanoma
[25] = system: MCF7 breast
[26] = system: MDA-MB-231 breast
[27] = system: MDA-MB-435 melanoma
[28] = system: MDA-MB-468 breast
[29] = system: MOLT-4 leukemia
[30] = system: NCI-H226 lung
[31] = system: NCI-H23 lung
[32] = system: NCI-H322M lung
[33] = system: NCI-H460 NSCLC
[34] = system: NCI-H522 lung
[35] = system: NCI/ADR-RES ovarian
[36] = system: OVCAR-3 ovarian
[37] = system: OVCAR-4 ovarian
[38] = system: OVCAR-5 ovarian
[39] = system: OVCAR-8 ovarian
[40] = system: PC-3 prostate
[41] = system: RPMI-8226 leukemia
[42] = system: RXF 393 renal
[43] = system: SF-268 CNS
[44] = system: SF-295 CNS
[45] = system: SF-539 CNS
[46] = system: SK-MEL-28 melanoma
[47] = system: SK-MEL-5 melanoma
[48] = system: SK-OV-3 ovarian
[49] = system: SN12C renal
[50] = system: SNB-19 CNS
[51] = system: SNB-75 CNS
[52] = system: SW-620 colon
[53] = system: T-47D breast
[54] = system: TK-10 renal
[55] = system: U251 glioblastoma
[56] = system: UACC-257 melanoma
[57] = system: UACC-62 melanoma
[58] = system: UO-31 renal

NC(=O)[C@H]1CCN(c2ncnc(N)c2F)C[C@@H]1N1CCC[C@@H](Nc2cc(Cl)cc(C(F)(F)F)c2)C1=O
GI50 [1]: 15.6 µM
TGI [1]: 53.4 µM
GI50 [2]: 12.5 µM
TGI [2]: 29.2 µM
GI50 [3]: 10.3 µM
TGI [3]: 25 µM
GI50 [4]: 7.86 µM
TGI [4]: 25.9 µM
GI50 [5]: 15.6 µM
TGI [5]: 31.6 µM
GI50 [6]: 11.5 µM
TGI [6]: 54.3 µM
GI50 [7]: 10.2 µM
TGI [7]: 22.1 µM
GI50 [8]: 7.06 µM
TGI [8]: 21.5 µM
GI50 [9]: 15.6 µM
TGI [9]: 53.1 µM
GI50 [10]: 12.2 µM
TGI [10]: 39.4 µM
GI50 [11]: 13.6 µM
TGI [11]: 28.5 µM
GI50 [12]: 9.04 µM
TGI [12]: 22 µM
GI50 [13]: 8.54 µM
TGI [13]: 32.7 µM
GI50 [14]: 10.8 µM
TGI [14]: 22.7 µM
GI50 [15]: 13.6 µM
TGI [15]: 35.8 µM
GI50 [16]: 13.8 µM
TGI [16]: 33.7 µM
GI50 [17]: 17.4 µM
TGI [17]: 39.3 µM
GI50 [18]: 7.05 µM
TGI [18]: 22 µM
GI50 [19]: 2.34 µM
TGI [19]: 17.4 µM
GI50 [20]: 8.33 µM
TGI [20]: 20.9 µM
GI50 [21]: 4.29 µM
TGI [21]: 30.7 µM
GI50 [22]: 11.2 µM
TGI [22]: 23.4 µM
GI50 [23]: 10.9 µM
TGI [23]: 24.4 µM
GI50 [24]: 14.5 µM
TGI [24]: 28.5 µM
GI50 [25]: 14.5 µM
TGI [25]: 36.3 µM
GI50 [26]: 10.7 µM
TGI [26]: 39.7 µM
GI50 [27]: 19.9 µM
TGI [27]: 67.1 µM
GI50 [28]: 2.21 µM
TGI [28]: 11.9 µM
GI50 [29]: 1.85 µM
TGI [29]: 6.1 µM
GI50 [30]: 10.9 µM
TGI [30]: 34.5 µM
GI50 [31]: 14.8 µM
TGI [31]: 32.2 µM
GI50 [32]: 21.3 µM
TGI [32]: 52 µM
GI50 [33]: 13.4 µM
TGI [33]: 27.1 µM
GI50 [34]: 5.3 µM
TGI [34]: 17.9 µM
GI50 [35]: 47.6 µM
TGI [35]: > 100 µM
GI50 [36]: 16.3 µM
TGI [36]: 35.4 µM
GI50 [37]: 19.9 µM
TGI [37]: 64.8 µM
GI50 [38]: 12.9 µM
TGI [38]: 40.2 µM
GI50 [39]: 21.5 µM
TGI [39]: 73.6 µM
GI50 [40]: 11.6 µM
TGI [40]: 46.8 µM
GI50 [41]: 11 µM
TGI [41]: 23.1 µM
GI50 [42]: 3.44 µM
TGI [42]: 13.4 µM
GI50 [43]: 3.26 µM
TGI [43]: 10.5 µM
GI50 [44]: 14.5 µM
TGI [44]: 31.6 µM
GI50 [45]: 14.5 µM
TGI [45]: 33.8 µM
GI50 [46]: 15.4 µM
TGI [46]: 32.5 µM
GI50 [47]: 9.85 µM
TGI [47]: 21.6 µM
GI50 [48]: 6.43 µM
TGI [48]: 40.1 µM
GI50 [49]: 8.02 µM
TGI [49]: 38.4 µM
GI50 [50]: 30 µM
TGI [50]: > 100 µM
GI50 [51]: 12.5 µM
TGI [51]: 34.2 µM
GI50 [52]: 15.2 µM
TGI [52]: 31.9 µM
GI50 [53]: 6.32 µM
TGI [53]: 23.2 µM
GI50 [54]: 14.8 µM
TGI [54]: 37.5 µM
GI50 [55]: 17.2 µM
TGI [55]: 60 µM
GI50 [56]: 14.9 µM
TGI [56]: 28.5 µM
GI50 [57]: 6.7 µM
TGI [57]: 19.7 µM
GI50 [58]: 20.3 µM
TGI [58]: 57.4 µM
